Measurements from article PMC5515969, “Effects of 31 FDA approved small-molecule kinase inhibitors on isolated rat liver mitochondria” (Archives of Toxicology, 2016).
Where two headings read alike, the source gives them in different places.

Assays:
[1] = cited from earlier work
[2] = cited from earlier work; remark: listed apart in the source
RCC I–V = assay: Activities of RCC I–V, overall statements; assay type: biochemical, rat; settings: submitochondrial particles
Experimental: KIs were incubated with submitochondrial particles (1 mg/ml) for 15 min and then RCC I–V activities measured. […] The activities of DMSO-treated samples (controls) were set as 1. […] The difference between the activity from rotenone-containing buffer and rotenone-absent buffer was considered as RCC I activity. […] For measuring RCC I/V and II activity, the changes in absorbance at 340 and 600 nm, respectively, were determined every 1 min for 6 min. For measuring RCC III and RCC IV, the changes in absorbance at 550 nm were measured every 10 s for 2 min.

RCC I = RCC I activity in submitochondrial particles; assay type: biochemical, rat; design: key to RCC I at 10XCmax / RCC I at 100XCmax / RCC I at 50XCmax / RCC I at 30XCmax / RCC I at 20XCmax: activity relative to DMSO-treated controls (control set as 1 = 100%); settings: for RCC activity I: 15 min
Outline: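 Kinase inhibitors were preincubated 15 min with submitochondrial particles (1 mg/ml) before complex activities were measured. RCC I was the rotenone-sensitive portion (activity without minus with rotenone). RCC I/V was read at 340 nm and RCC II at 600 nm every 1 min for 6 min. RCC III and IV were read at 550 nm every 10 s for 2 min. Activities are normalized to DMSO controls set as 1.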

RCC IV = RCC IV activity in submitochondrial particles; assay type: biochemical, rat; settings: 15 min, DMSO-treated = 100
Outline: (§1)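 Absorbance kinetics: A340 (RCC I, V) and A600 (RCC II) read each minute over 6 min, A550 (RCC III, IV) every 10 s over 2 min; RCC I taken as […]. Particles (1 mg/ml) pretreated 15 min with compound; DMSO-treated activity = 1.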

RCC III = RCC III activity in submitochondrial particles; assay type: biochemical, rat; settings: 15 min, DMSO-treated = 100
Outline: as §1

RCC V = RCC V activity in submitochondrial particles; assay type: biochemical, rat; settings: for RCC activity V: 15 min, DMSO-treated = 100; for RCC V at 5XCmax: key: 0 indicates that the drug had no effects (negative)
Outline: as §1

[3] = test system: isolated rat liver mitochondria; settings: positive control alamethicin treated samples
[4] = test system: isolated rat liver mitochondria; assay: Mitochondrial inner membrane potential (MMP), Rhodamine 123; assay type: biochemical; settings: difference in signal between KI and DMSO treated samples at the end of experiments
Source text: Fig. 3 KI effects on mitochondrial inner membrane potential (MMP). […] In a, c, data are means and standard derivations from three separate experiments. *p < 0.05 as compared to DMSO-treated samples at the end of experiments. In b, data are means of two independent experiments

[5] = test system: isolated rat liver mitochondria; assay: Mitochondrial ROS production (CM-H2DCFDA); settings: DMSO treated samples set as 1
[6] = test system: isolated rat liver mitochondria; assay: Mitochondrial swelling (absorbance at 535 nm); assay type: biochemical; settings: difference in signal between KI and DMSO treated samples at the end of experiments; for Swelling 5XCmax: key: 0 indicates that the drug had no effects (negative)
RCC II = target: T1, RCC II (Rattus norvegicus, UniProt P21913+Q641Z9+Q6PCT8+Q920L2); assay: RCC II activity in submitochondrial particles; assay type: biochemical; design: key: activity relative to DMSO-treated controls (control set as 1 = 100%); settings: DMSO treated samples set as 1
T1 construct: Submitochondrial particles were prepared by subjecting the intact mitochondria to three successive freeze–thaw cycles; from tissue; host or cells: rat liver mitochondria, used as submitochondrial particles
Outline: as §1

[7] = test system: isolated rat liver mitochondria; assay: Mitochondrial oxygen consumption (glutamate/malate or succinate driven, state 4 and state 3); assay type: biochemical; settings: DMSO treated samples set as 1; for State 3 respiration driven by succinate at 10XCmax: key: 0 indicates that the drug had no effects (negative); for State 3 respiration driven by succinate at 1XCmax: key: 0 indicates that the drug had no effects (negative)
Outline: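 Oxygen uptake on glutamate/malate or on succinate defined state 4; ADP added 3 min later gave state 3. Mitochondria isolated from rat liver by differential centrifugation, adjusted to 1 mg/ml and pretreated 5 min with inhibitor (0.1% DMSO final). Values relative to DMSO control, set to 1.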

[8] = Solubility of DMSO stock for 100X/50X Cmax testing; assay type: physicochemical; settings: solubility in DMSO
Source text: Supplement 204_2016_1918_MOESM3_ESM.xlsx, sheet "Sheet1" | column: 100 Cmax; 50 Cmax; note

[9] = human therapeutic Cmax at FDA recommended dosages, ref product labeling and drug approval packages at the official FDA website

T1 sequence (Q920L2 35-656): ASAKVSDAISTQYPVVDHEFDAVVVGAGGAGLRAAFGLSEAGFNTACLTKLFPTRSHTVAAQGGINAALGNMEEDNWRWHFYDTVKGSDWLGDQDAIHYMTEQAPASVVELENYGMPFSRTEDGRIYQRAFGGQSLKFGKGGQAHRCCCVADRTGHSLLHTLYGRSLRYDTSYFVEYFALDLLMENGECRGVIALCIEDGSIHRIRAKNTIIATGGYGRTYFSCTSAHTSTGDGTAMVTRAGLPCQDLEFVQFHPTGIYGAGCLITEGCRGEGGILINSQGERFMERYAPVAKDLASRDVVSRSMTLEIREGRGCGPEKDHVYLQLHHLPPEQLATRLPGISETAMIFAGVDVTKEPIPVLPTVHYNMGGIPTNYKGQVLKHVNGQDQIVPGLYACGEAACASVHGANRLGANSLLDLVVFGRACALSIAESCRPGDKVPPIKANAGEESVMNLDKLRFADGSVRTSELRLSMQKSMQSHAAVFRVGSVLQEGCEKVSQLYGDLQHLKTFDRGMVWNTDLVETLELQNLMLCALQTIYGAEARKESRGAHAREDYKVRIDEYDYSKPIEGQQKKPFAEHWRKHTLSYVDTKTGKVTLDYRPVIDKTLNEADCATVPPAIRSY
T1 sequence (P21913 31-282): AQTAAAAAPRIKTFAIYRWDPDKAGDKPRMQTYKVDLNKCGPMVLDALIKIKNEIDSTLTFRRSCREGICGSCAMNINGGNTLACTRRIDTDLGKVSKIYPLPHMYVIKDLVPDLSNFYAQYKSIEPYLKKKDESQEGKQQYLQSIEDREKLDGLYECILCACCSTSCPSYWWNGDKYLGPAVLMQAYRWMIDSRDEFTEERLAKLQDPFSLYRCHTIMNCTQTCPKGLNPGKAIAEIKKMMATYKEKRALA
T1 sequence (Q641Z9 1-169): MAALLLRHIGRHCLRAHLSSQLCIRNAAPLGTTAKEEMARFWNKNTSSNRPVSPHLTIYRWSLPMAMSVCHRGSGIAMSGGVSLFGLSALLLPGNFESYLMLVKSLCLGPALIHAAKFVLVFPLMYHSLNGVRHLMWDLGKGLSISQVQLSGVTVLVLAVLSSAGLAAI
T1 sequence (Q6PCT8 57-159): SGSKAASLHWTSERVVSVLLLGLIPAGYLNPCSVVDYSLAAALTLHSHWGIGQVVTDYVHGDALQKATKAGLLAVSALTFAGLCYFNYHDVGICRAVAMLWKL

C#Cc1cccc(Nc2ncnc3cc(OCCOC)c(OCCOC)cc23)c1 [Erlotinib]
Cmax [1, 9]: 3.44 µM | labeling for DILI ([2]; in vivo): W&P: fatal DILI | DILI potential (based on labeling) ([2]; ref FDA product labeling): 1 | lowest concentration inhibiting RCCs (RCC I–V): 10 fold Cmax | RCC activity I (RCC I; 10-fold Cmax, DMSO-treated = 100): 90.62 ± 2.87 % of control | RCC activity IV (RCC IV; 10-fold Cmax): 98.77 ± 4.53 % of control | RCC activity III (RCC III; 10-fold Cmax): 103.11 ± 12.25 % of control | RCC activity V (RCC V; 10-fold Cmax): 83.52 ± 2.96 % of control

CCc1cc2c(cc1N1CCC(N3CCOCC3)CC1)C(C)(C)c1[nH]c3cc(C#N)ccc3c1C2=O [Alectinib]
Cytochrome c release 1XCmax ([3]; 1XCmax): 0 | Cytochrome c release 2.5XCmax ([3]; 2.5XCmax): 0 | Cytochrome c release 5XCmax ([3]; 5XCmax): 0 | Cytochrome c release 10XCmax ([3]; 10XCmax): 0 | Cytochrome c release 20XCmax ([3]; 20XCmax): 0 | Cmax [1, 9]: 1.37 µM | Cmax (ng or µg/ml) ([1]; human therapeutic maximal blood concentration, ref product labeling): 0.665 µg/mL | Cmax ([1]; read-out: Cmax at µM, human therapeutic maximal blood concentration, ref product labeling): 1.37 µM | MMP measured by Rhodamine 123 at 1XCmax ([4]; 1XCmax): 0 | MMP measured by Rhodamine 123 at 2.5XCmax ([4]; 2.5XCmax): 0 | MMP measured by Rhodamine 123 at 5XCmax ([4]; 5XCmax): 0 | MMP measured by Rhodamine 123 at 10XCmax ([4]; 10XCmax): 0 | MMP measured by Rhodamine 123 at 20XCmax ([4]; 20XCmax): 0 | ROS measured by CM-H2DCFDA at 1XCmax ([5]; 1XCmax): 0 | ROS measured by CM-H2DCFDA at 2.5XCmax ([5]; 2.5XCmax): 0 | ROS measured by CM-H2DCFDA at 5XCmax ([5]; 5XCmax): 0 | ROS measured by CM-H2DCFDA at 10XCmax ([5]; 10XCmax): 0 | ROS measured by CM-H2DCFDA at 20XCmax ([5]; 20XCmax): 0 | Swelling 1XCmax ([6]; 1XCmax): 0 | Swelling 2.5XCmax ([6]; 2.5XCmax): 0 | Swelling 5XCmax ([6]; 5XCmax): 0 | Swelling 10XCmax ([6]; 10XCmax): 0 | Swelling 20XCmax ([6]; 20XCmax): 0 | RCC I at 10XCmax (RCC I; 10XCmax, DMSO treated samples set as 1): 0 | RCC activity I (RCC I; 20-fold Cmax, DMSO-treated = 100): 89.39 ± 2.98 % of control | RCC I at 20XCmax (RCC I; 20XCmax, DMSO-treated = 100): 89.39±2.98 | RCC activity IV (RCC IV; 20-fold Cmax): 101.46 ± 1.66 % of control | RCC activity III (RCC III; 20-fold Cmax): 116.05 ± 4.72 % of control | RCC II at 1.0XCmax (RCC II; 1.0XCmax): 0 | RCC II at 2.5XCmax (RCC II; 2.5XCmax): 0 | RCC II at 5XCmax (RCC II; 5XCmax): 0 | RCC II at 10XCmax (RCC II; 10XCmax): 0 | RCC II at 20XCmax (RCC II; 20XCmax): 0 | State 3 respiration driven by succinate at 1XCmax ([7]; 1XCmax): 0 | State 4 respiration driven by succinate at 1XCmax ([7]; 1XCmax): 0 | State 3 respiration driven by succinate at 2.5XCmax ([7]; 2.5XCmax): 0 | State 4 respiration driven by succinate at 2.5XCmax ([7]; 2.5XCmax): 0 | State 3 respiration driven by succinate at 5XCmax ([7]; 5XCmax): 0 | State 4 respiration driven by succinate at 5XCmax ([7]; 5XCmax): 0 | State 3 respiration driven by succinate at 10XCmax ([7]; 10XCmax): 0 | State 4 respiration driven by succinate at 10XCmax ([7]; 10XCmax): 0 | State 3 respiration driven by succinate at 20XCmax ([7]; 20XCmax): 0 | State 4 respiration driven by succinate at 20XCmax ([7]; 20XCmax): 0 | DMSO stock for 50 Cmax ([8]; stock for 50 Cmax): not soluble | DMSO stock for 100 Cmax ([8]; stock for 100 Cmax): not soluble | RCC V at 5XCmax (RCC V; 5XCmax, DMSO treated samples set as 1): 0 | RCC activity V (RCC V; 20-fold Cmax): 106.30 ± 11.74 % of control
